According to patent US7718768B2, “Biologically active peptide [sequence]” (CMS Peptides Patent Holding Company Limited, priority 2001, dated 2010):
Marks after values point to notes of the source that are not given here. No end group written: not given here.

What was measured:
T lymphocyte [1] = test: T lymphocyte IL-2 secretion test (HT-2 cell bioassay of ConA supernatant); assay type: in vivo, BALB/c mice; settings: IFN-γ and IL-2 groups 3×10^5 IU/kg/day, X ± SD
Protocol: (§1) The above substances were all dissolved in 0.5 ml saline and injected intraperitoneal (i.p.) for 15 continuous days, once per day.
(§2) Spleen cells of density 1×10^6/ml were placed onto a 96 wells cell culture plate, 100 μl/well, three parallel wells each of the assay sample and control sample per mouse. To the assay wells, 100 μl/well ConA of 100 μg/ml in RPMI-1640 was added, and 100 μl/well plain RPMI-1640 was used for the controls. The cells were incubated for 66 hrs at 37° C., 5% CO2. The cells were then pelleted by centrifugation at 150 g for 10 minutes.
HT-2 cells at log phase were collected by centrifugation at 150 g for 10 minutes, and washed three times with cold Hank's solution by re-suspension and centrifugation. The collected HT-2 cells were re-suspended in RPMI-1640 and incubated at 37° C., 5% CO2 for 30 minutes. The cells were further washed twice with RPMI-1640 by re-suspension and centrifugation, and re-suspended to final concentration of 2×10^5/ml with RPMI-1640.
rIL-2 was diluted to the following concentration with RPMI-1640: 500 IU/ml, 250 IU/ml, 125 IU/ml, 62.5 IU/ml, 31.25 IU/ml, and […].
A 96 well cell culture plate was set up with three parallel wells per combination:
Negative control: 100 μl RPMI-1640+100 μl HT-2 cell suspension
rIL-2 standard: 100 μl rIL-2 solution+100 μl HT-2 cell suspension
Assay well: 100 μl diluted supernatant+100 μl HT-2 cell suspension
The plate was incubated at 37° C., 5% CO2 for 68 hours, then centrifuged at 150 g for 15 minutes and the supernatant removed. 100 μl 0.5 mg/ml MTT in RPMI-1640 without phenolsulfonphthalein was added into each well. After shaking for 3-4 minutes to re-suspend the cells, continue to incubate for another 4 hours. Samples were then centrifuged at 150 g for 15 minutes and the supernatant was removed. To each well, 120 μl 40 mM HCl-2-propanol was added, mixed for 3-4 minutes and OD analyzed at 570 nm, referenced at 630 nm with an ELISA plate reader.
The average OD of the three parallel wells of each dilution was taken and plotted against concentration on a semi-log paper, concentration on the X-axis. The concentration at 50% OD saturation was obtained for both the testing supernatant and rIL-2.

T lymphocyte [2] = test: T lymphocyte transformation test (ConA, MTT) on spleen cells of treated mice; assay type: in vivo, BALB/c mice; design: key: OD of assay wells divided by OD of control wells; settings: IFN-γ and IL-2 groups 3×10^5 IU/kg/day, X ± SD
Protocol: as §1
(§3) Ten mice per group. The day after the last test substance administration, the mice were sacrificed by cervical dislocation. The spleen was isolated aseptically and manually dispersed in cold D-Hank's solution using an injection needle. The dispersed cell suspension was further sieved through a 100 gauge 150 μm diameter stainless steel sieve. After centrifugation at 200 g for 10 minutes, the supernatant was discarded. The cell pellet was re-suspended in 10 volume of Tris-NH4Cl buffer and then kept standing still for 10 minutes at room temperature. The suspended cells were collected by centrifugation at 150 g for 10 minutes. The cells were washed 2-4 times with cold D-Hank's solution by re-suspending and collecting by centrifugation with condition as described above. The washed cells were then diluted to the desired cell densities by RPMI-1640 culture medium, containing 10% fetal bovine serum.
as §2
50 μl/well MTT of 1 mg/ml in RPMI-1640 was added to the cell pellet and the cells re-suspended by shaking for 2 minutes. The incubation was continued for 4 hours. The supernatant was discarded after centrifugation at 150 g for 10 minutes. 120 μl 40 mM HCl-2-propanol was added to the cell pellet and shaken for 3 minutes. to obtain OD570nm of each well referenced at 630 nm. An ELISA reader was used
Each mouse formed three assay wells and three control wells. The Stimulation Index (SI) of each mouse was obtained by first deriving the average OD of the three parallel wells, then dividing the value of the assay wells by the control wells.

anti-SRBC antibody = test: Sheep Red Blood Cell (SRBC) hemolysis test, anti-SRBC antibody formation; assay type: in vivo, BALB/c mice; settings: SRBC on day 12, IFN-γ and IL-2 groups 3×10^5 IU/kg/day, X ± SD
Protocol: Sheep red blood cells (SRBC) were prepared by collecting blood from cervical vein and put into a sterile flask with glass beads. The flask was shaken for 3 minutes and the blood then mixed with Alsever solution (glucose 2.05 g, NaCl 0.4 g, […] 0.8 g, adjust to 100 ml with distilled water) and stored at 4° C. Immediately before use, samples were centrifuged at 130 g, 5 minutes to collect the SRBC. The cells were washed two times by re-suspension and centrifugation in normal saline. Then the cell pellet was collected by centrifugation at 180 g for 10 minutes and re-suspended in saline to make the final working SRBC suspension, 2% (v/v).
Complement was prepared by adding 10 volumes of fresh Cavy serum into one volume centrifuge packed SRBC, and then gently shaking for 30 minutes at 4° C. The SRBC was removed by centrifugation at 200 g for 10 minutes. 10 volumes of normal saline were added to obtain the working complement solution.
The test substances were administered as described in section 1.1, plus intraperitoneal injection 0.2 ml SRBC per mouse on day 12. On the day after the last test substance administration (day 16), blood was collected from the eye canthus and left at room temperature for one hour for serum exudation. After centrifugation at 200 g for 10 minutes, the serum was diluted by 500 times with normal saline.
To 1 ml diluted mouse serum of each mouse, 0.5 ml SRBC suspension was added. Ice cold. Then 1 ml working complement solution was added and incubated at 37° C. water bath for 10 minutes. Reactions were terminated by ice cold. Samples were then centrifuged at 200 g for 10 minutes to obtain the supernatant.
To 1 ml of this supernatant, 3 ml Drabkin solution was added and left at room temperature for 10 minutes. OD540nm was obtained.
Reference OD540nm was obtained by mixing 0.25 ml SRBC suspension with Drabkin solution to 4 ml and placed at room temperature for 10 minutes before OD540nm was taken. Sample serum index=(OD540nm of test sample[…]reference OD540nm)×500 3. The Effect of Peptides on the Phagocytosis Function of Mononuclear Phagocyte and the Weight of Immune Organ^[8,9].

[3] = immunity organ weight test (thymus gland index, spleen index); assay type: in vivo, BALB/c mice; settings: X ± SD
Protocol: as §1
(§4) One day after the last test substance administration (day 16), the liver, spleen, and thymus gland were separated and blotted dry with filter paper and weighed. The phagocytosis index α was calculated as below: α=(^3√K)(W÷WLS) key: W: body weight WLS: weight of liver plus spleen Thymus gland index(%)=(thymus weight/body weight)×100% Spleen index(%)=(spleen weight/body weight)×100%

T lymphocyte [4] = test system: T lymphocyte; design: species or system BALB/c mice; settings: mouse, in vivo, ip
mononuclear phagocyte = test: carbon particle clearance test, phagocytotic activity of mononuclear phagocyte; assay type: in vivo, BALB/c mice; design: key: α = (cube root of K)×(body weight ÷ liver+spleen weight); settings: IFN-γ and IL-2 groups 3×10^5 IU/kg/day, X ± SD
Protocol: On the next day after the last test substance administration (day 16), the mice were injected with […] body weight India ink (5 times dilution with normal saline) from the tail vein.
One minute and five minutes after Indian ink injection, 20 μl blood was obtained from the eye can thus with a heparinized tubing. The blood was mixed with 2 ml 0.1% w/v Na2CO3 and then OD680nm obtained. The outline clear index K was calculated by the following formula: K=(lgA1−lgA2)÷(t2−t1) Key: A1: OD680nm at first minute A2: OD680nm at fifth minute t2: 5 minutes […]
as §4

NK cell = NK cell cytotoxicity activity test (YAC-1 target cells, MTT) on spleen cells of treated mice; assay type: in vivo, BALB/c mice; settings: IFN-γ and IL-2 groups 3×10^5 IU/kg/day, X ± SD
Protocol: as §1, §3
Mice spleen cells were prepared to 4×10^6/ml as described in section 1.1 above. Target cells YAC-1 were brought to log phase and adjusted to 1×10^5/ml. Using a 96 wells cell culture plate, 100 μl mouse spleen cells and 100 μl culture medium were added to the control well containing only the spleen cells; 100 μl target cells and 100 μl culture medium were added to the control well containing only target cells; 100 μl mouse spleen cells and 100 μl target cells were added to the NK activity assay well. Three parallel sets of the above were prepared per mouse.
Samples were centrifuged at 150 g for 10 minutes to collect the cells. The supernatant was discarded and 50 μl/well MTT of 1 mg/ml was added. The reaction mixture was then shaken for 2 minutes, and incubated at 37° C., 5% CO2 for 4 hours. The supernatant was discarded after centrifugation at 150 g for 10 minutes. 120 μl 40 mM HCl-2-propanol was added and shaken for 3 minutes. An ELISA reader was used to obtain OD570nm of each well referenced at 630 nm.

[5] = peptide 5 μg/kg/day i.p. 15 days
[6] = peptide 500 μg/kg/day i.p. 15 days
[7] = peptide 0.5 μg/kg/day i.p. 15 days
[8] = peptide 50 μg/kg/day i.p. 15 days
[9] = peptide 5 μg/kg/day i.p. 15 days, IFN-γ and IL-2 groups 3×10^5 IU/kg/day
[10] = peptide 0.5 μg/kg/day i.p. 15 days, IFN-γ and IL-2 groups 3×10^5 IU/kg/day
[11] = peptide 50 μg/kg/day i.p. 15 days, IFN-γ and IL-2 groups 3×10^5 IU/kg/day
[12] = peptide 500 μg/kg/day i.p. 15 days, IFN-γ and IL-2 groups 3×10^5 IU/kg/day

Ala Gly Asp Asp Ala Pro Arg Ala Val Phe (AGDDAPRAVF; listed as Sus scrofa) [CMS007]
activity of T lymphocyte in secreting IL-2 (T lymphocyte [1]; [5]): 64 ± 12 IU
activity of T lymphocyte in secreting IL-2 (T lymphocyte [1]; [6]): 86 ± 15*^ IU
stimulation index (T lymphocyte transformation) (T lymphocyte [2]; [5]): 1.7 ± 0.1
stimulation index (T lymphocyte transformation) (T lymphocyte [2]; [6]): 1.6 ± 0.1
anti-SRBC antibody formation (sample serum index) (anti-SRBC antibody; [5]): 122 ± 12*^@^ Unit
anti-SRBC antibody formation (sample serum index) (anti-SRBC antibody; [6]): 69 ± 17*^@ Unit
weight of spleen (spleen index) [3, 6]: 0.32 ± 0.05 %

LRVAPEEHPVL [CMS013]
activity of T lymphocyte in secreting IFN (T lymphocyte [4]): 154 ± 15*^@^ IU
phagocytotic index (mononuclear phagocyte; [5]): 6.7 ± 0.2
NK cell cytotoxic activity (NK cell activity index) (NK cell; [6]): 84 ± 9 %
anti-SRBC antibody formation (sample serum index) (anti-SRBC antibody; [7]): 7 ± 1* Unit
anti-SRBC antibody formation (sample serum index) (anti-SRBC antibody; [5]): 93 ± 28*^@ Unit
anti-SRBC antibody formation (sample serum index) (anti-SRBC antibody; [8]): 70 ± 9*^@ Unit
anti-SRBC antibody formation (sample serum index) (anti-SRBC antibody; [6]): 80 ± 16*^@ Unit
weight of thymus gland (thymus gland index) [3, 9]: 0.21 ± 0.05 %
weight of spleen (spleen index) [3, 6]: 0.44 ± 0.07 %

MATAASSSSL [CMS021]
activity of T lymphocyte in secreting IFN (T lymphocyte [4]): 143 ± 17*^@^ IU
stimulation index (T lymphocyte transformation) (T lymphocyte [2]; [6]): 1.6 ± 0.1
NK cell cytotoxic activity (NK cell activity index) (NK cell; [8]): 88 ± 12*^@^ %
anti-SRBC antibody formation (sample serum index) (anti-SRBC antibody; [7]): 57 ± 9*^@ Unit
anti-SRBC antibody formation (sample serum index) (anti-SRBC antibody; [5]): 82 ± 30*^@ Unit
anti-SRBC antibody formation (sample serum index) (anti-SRBC antibody; [8]): 94 ± 20*^@^ Unit
weight of thymus gland (thymus gland index) [3, 9]: 0.20 ± 0.06 %
weight of spleen (spleen index) [3, 6]: 0.36 ± 0.04 %

Phe Glu Pro Ser Phe (FEPSF; listed as Sus scrofa) [CMS028]
activity of T lymphocyte in secreting IFN (T lymphocyte [4]): 96 ± 13 IU
NK cell cytotoxic activity (NK cell activity index) (NK cell; [7]): 79 ± 3 %
NK cell cytotoxic activity (NK cell activity index) (NK cell; [6]): 90 ± 5 %
anti-SRBC antibody formation (sample serum index) (anti-SRBC antibody; [7]): 18 ± 5* Unit
anti-SRBC antibody formation (sample serum index) (anti-SRBC antibody; [5]): 121 ± 48*^@^ Unit
weight of thymus gland (thymus gland index) [3, 10]: 0.20 ± 0.06 %
weight of thymus gland (thymus gland index) [3, 9]: 0.28 ± 0.06*^@^ %
weight of thymus gland (thymus gland index) [3, 11]: 0.18 ± 0.04 %
weight of thymus gland (thymus gland index) [3, 12]: 0.19 ± 0.02 %

VGMGQKDSYV [CMS020]
activity of T lymphocyte in secreting IL-2 (T lymphocyte [1]; [5]): 63 ± 11 IU
phagocytotic index (mononuclear phagocyte; [6]): 6.4 ± 0.6
NK cell cytotoxic activity (NK cell activity index) (NK cell; [5]): 91 ± 6 %
anti-SRBC antibody formation (sample serum index) (anti-SRBC antibody; [7]): 10 ± 3* Unit
anti-SRBC antibody formation (sample serum index) (anti-SRBC antibody; [5]): 89 ± 24*^@ Unit
anti-SRBC antibody formation (sample serum index) (anti-SRBC antibody; [6]): 155 ± 35*^@^ Unit
weight of spleen (spleen index) [3, 10]: 0.68 ± 0.09*^@^ %
weight of thymus gland (thymus gland index) [3, 10]: 0.23 ± 0.05*^@^ %
weight of thymus gland (thymus gland index) [3, 9]: 0.24 ± 0.07*^@^ %
weight of thymus gland (thymus gland index) [3, 11]: 0.27 ± 0.03*^@^ %
weight of thymus gland (thymus gland index) [3, 12]: 0.19 ± 0.04 %
